Experimental data taken from the NIST ThermoML archive (doi:10.1021/je900262t).

Assays:
[1] = Liquid; for mass density: 303.15 K, 101.33 kPa, Pycnometric method; for vapor or sublimation pressure: Ebulliometric method (Recirculating still)
[2] = excess molar enthalpy (molar enthalpy of mixing); xn = mol fraction of the nth substance listed; conditions: 298.15 K, 101 kPa, Liquid

CC(=O)CC(C)C [4-methylpentan-2-one]
Conditions | mass density [kg/m3]
[1] | 796.33

Conditions | vapor or sublimation pressure [kPa]
[1], 386.65 K | 95.3

CC(=O)CC(C)C [4-methylpentan-2-one] + CN1CCCC1=O
[2]
Conditions | excess molar enthalpy [kcal/mol]
x1 = 0.0508 | 0.00545
x1 = 0.1052 | 0.0119
x1 = 0.1632 | 0.0183
x1 = 0.2234 | 0.0242
x1 = 0.2858 | 0.0304
x1 = 0.3815 | 0.04
x1 = 0.4258 | 0.0429
x1 = 0.4787 | 0.0432
x1 = 0.5346 | 0.0415
x1 = 0.599 | 0.0401
x1 = 0.6712 | 0.0362
x1 = 0.7536 | 0.0253
x1 = 0.8369 | 0.0156
x1 = 0.9192 | 0.00581

CN1CCCC1=O [N-methylpyrrolidone]
Conditions | mass density [kg/m3]
[1] | 1023.4

Conditions | vapor or sublimation pressure [kPa]
[1], 473.25 K | 95.3

CCC(C)=O [butanone]
Conditions | mass density [kg/m3]
[1] | 799.71

Conditions | vapor or sublimation pressure [kPa]
[1], 350.85 K | 95.3

CCC(C)=O [butanone] + CN1CCCC1=O
[2]
Conditions | excess molar enthalpy [kcal/mol]
x1 = 0.0565 | -0.00626
x1 = 0.1162 | -0.0109
x1 = 0.1812 | -0.0161
x1 = 0.2461 | -0.0239
x1 = 0.3104 | -0.0306
x1 = 0.369 | -0.0355
x1 = 0.4334 | -0.0382
x1 = 0.4841 | -0.04
x1 = 0.5458 | -0.0377
x1 = 0.6781 | -0.0277
x1 = 0.7324 | -0.0206
x1 = 0.7935 | -0.0148
x1 = 0.8525 | -0.0117
x1 = 0.9112 | -0.00593
x1 = 0.9609 | -0.0048

O=C1CCCCC1 [cyclohexanone]
Conditions | vapor or sublimation pressure [kPa]
[1], 426.25 K | 95.3

O=C1CCCCC1 [cyclohexanone] + CN1CCCC1=O
[2]
Conditions | excess molar enthalpy [kcal/mol]
x1 = 0.0609 | 0.0043
x1 = 0.1242 | 0.013
x1 = 0.1855 | 0.0201
x1 = 0.2495 | 0.0261
x1 = 0.3151 | 0.0331
x1 = 0.3761 | 0.0391
x1 = 0.4301 | 0.0425
x1 = 0.4527 | 0.0461
x1 = 0.5028 | 0.0484
x1 = 0.5608 | 0.0481
x1 = 0.6249 | 0.0477
x1 = 0.6866 | 0.04
x1 = 0.7491 | 0.0317
x1 = 0.8134 | 0.0237
x1 = 0.8794 | 0.0158
x1 = 0.9445 | 0.00798
